In US20230104936A1, “TRPML MODULATORS” (Casma Therapeutics, Inc., priority 2019, published 2023):

System: TFEB
Experiment: TFEB nuclear translocation assay, HeLa wt cells
Assay type: cell-based
Settings: 2 hrs compound treatment, Table 1 does not say HeLa wt or TRPML1 KO
Procedure, shortened: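 AC50 derived from the ratio of nuclear to perinuclear ring (−5 μm) anti-TFEB immunofluorescence, imaged at ×20 over four fields per well. HeLa wt or TRPML1 KO cells were exposed to compounds for 2 hrs at 37° C, then PFA-fixed and counterstained with Hoechst.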

Compound | AC50 (Homo sapiens, HeLa, 2 h) [nM] | AC50 [nM]
C[C@@H]1CN(CC2CCN(c3c(F)cccc3[C@H](C)S(=O)(=O)c3ccc(S(=O)(=O)N(C)C)cc3)CC2)C[C@H](C)O1 [Compound A-783, 4-[(1S)-1-[2-(4-{[(2R,6S)-2,6-dimethylmorpholin-4-yl]methyl}piperidin-1-yl)-3-fluorophenyl]ethanesulfonyl]-N,N-dimethylbenzene-1-sulfonamide] | ≤ 2000 | –
CN(C)S(=O)(=O)c1ccc(S(=O)(=O)Nc2ccccc2N2CCC(C)(COC(F)(F)F)CC2)cc1 [Compound A-784, N1,N1-dimethyl-N4-(2-{4-methyl-4-[(trifluoromethoxy)methyl]piperidin-1-yl}phenyl)benzene-1,4-disulfonamide] | ≤ 2000 | –
CN(C)S(=O)(=O)c1ccc(S(=O)(=O)Nc2cccc(F)c2N2CCC(CN3C[C@@H]4C[C@H]3CO4)CC2)cc1 [Compound A-785, N4-[3-fluoro-2-(4-{[(1S,4S)-2-oxa-5-azabicyclo[2.2.1]heptan-5-yl]methyl}piperidin-1-yl)phenyl]-N1,N1-dimethylbenzene-1,4-disulfonamide] | ≤ 2000 | –
COC1(CN2C[C@@H](C)O[C@@H](C)C2)CCN(c2c(F)cccc2NS(=O)(=O)c2ccc(S(=O)(=O)N(C)C)cc2)CC1 [Compound A-786, N4-[2-(4-[(2R,6S)-2,6-dimethylmorpholin-4-yl]methyl-4-methoxypiperidin-1-yl)-3-fluorophenyl]-N1,N1-dimethylbenzene-1,4-disulfonamide] | ≤ 2000 | –
C[C@@H]1CN(CC2CCN(c3c(NS(=O)(=O)c4ccc(S(=O)(=O)N(C)C)cc4)cccc3C(F)(F)F)CC2)C[C@H](C)O1 [Compound A-788, N4-[2-(4-{[(2R,6S)-2,6-dimethylmorpholin-4-yl]methyl}piperidin-1-yl)-3-(trifluoromethyl)phenyl]-N1,N1-dimethylbenzene-1,4-disulfonamide] | ≤ 2000 | –
CN(C)S(=O)(=O)c1ccc(S(=O)(=O)Nc2cccc(F)c2N2CCC(CN3CCC(F)(F)CC3)CC2)cc1 [Compound A-789, N4-(2-{4-[(4,4-difluoropiperidin-1-yl)methyl]piperidin-1-yl}-3-fluorophenyl)-N1,N1-dimethylbenzene-1,4-disulfonamide] | ≤ 2000 | –
CN(C)S(=O)(=O)c1ccc(S(=O)(=O)Nc2cccc(F)c2N2CCC(CN3C4CCC3COC4)CC2)cc1 [Compound A-790, N4-{3-fluoro-2-[4-({3-oxa-8-azabicyclo[3.2.1]octan-8-yl}methyl)piperidin-1-yl]phenyl}-N1,N1-dimethylbenzene-1,4-disulfonamide] | ≤ 2000 | –
CN(C)S(=O)(=O)c1ccc(S(=O)(=O)Nc2cccc(F)c2N2CCC(CN3CC4CC(C3)O4)CC2)cc1 [Compound A-791, N4-{3-fluoro-2-[4-({6-oxa-3-azabicyclo[3.1.1]heptan-3-yl}methyl)piperidin-1-yl]phenyl}-N1,N1-dimethylbenzene-1,4-disulfonamide] | ≥ 10000 | –
CN(C)S(=O)(=O)c1ccc(S(=O)(=O)Nc2cccc(F)c2N2CCC3(CCNC3=O)CC2)cc1 [Compound A-792, N4-(3-fluoro-2-{1-oxo-2,8-diazaspiro[4.5]decan-8-yl}phenyl)-N1,N1-dimethylbenzene-1,4-disulfonamide] | ≥ 10000 | –
CN(C)S(=O)(=O)c1ccc(S(=O)(=O)Nc2ccc3ccnn3c2N2CCCCC2)cc1 [Compound A-793, N1,N1-dimethyl-N4-[7-(piperidin-1-yl)pyrazolo[1,5-a]pyridin-6-yl]benzene-1,4-disulfonamide] | 2010 to 8000 | –
C[C@@H]1CN(CC2(F)CCN(c3c(F)cccc3NS(=O)(=O)c3ccc(S(=O)(=O)N(C)C)cc3)CC2)C[C@H](C)O1 [Compound A-794, N4-[2-(4-{[(2R,6S)-2,6-dimethylmorpholin-4-yl]methyl}-4-fluoropiperidin-1-yl)-3-fluorophenyl]-N1,N1-dimethylbenzene-1,4-disulfonamide] | ≤ 2000 | –
CC(=O)NC1(C)CCN(c2c(F)cccc2NS(=O)(=O)c2ccc(S(=O)(=O)N(C)C)cc2)CC1 [Compound A-795, N-(1-{2-[4-(dimethylsulfamoyl)benzenesulfonamido]-6-fluorophenyl}-4-methylpiperidin-4-yl)acetamide] | 8010 to 9990 | –
CN(C)S(=O)(=O)c1ccc(S(=O)(=O)Nc2cccc(F)c2N2CCC3(CCC(=O)N3)CC2)cc1 [Compound A-796, N4-(3-fluoro-2-{2-oxo-1,8-diazaspiro[4.5]decan-8-yl}phenyl)-N1,N1-dimethylbenzene-1,4-disulfonamide] | ≥ 10000 | –
CN(C)S(=O)(=O)c1ccc(S(=O)(=O)Nc2ccccc2N2CCC(COC(F)(F)CF)CC2)cc1 [Compound A-797, N1,N1-dimethyl-N4-(2-{4-[(1,1,2-trifluoroethoxy)methyl]piperidin-1-yl}phenyl)benzene-1,4-disulfonamide] | ≤ 2000 | –
CN(C)S(=O)(=O)c1ccc(S(=O)(=O)Nc2ccccc2N2CCC(F)(COC(F)(F)F)CC2)cc1 [Compound A-798, N4-(2-{4-fluoro-4-[(trifluoromethoxy)methyl]piperidin-1-yl}phenyl)-N1,N1-dimethylbenzene-1,4-disulfonamide] | ≤ 2000 | –
CC(c1cccc(F)c1N1CCC(CN2C[C@@H](C)O[C@@H](C)C2)CC1)S(=O)(=O)c1ccc(S(=O)(=O)C(F)F)cc1 (stereo partly drawn) [Compound A-800, (2R,6S)-4-[(1-{2-[1-(4-difluoromethanesulfonylbenzenesulfonyl)ethyl]-6-fluorophenyl}piperidin-4-yl)methyl]-2,6-dimethylmorpholine] | ≤ 2000 | –
CC(c1cccc(F)c1N1CCC(CN2CCC(F)(F)CC2)CC1)S(=O)(=O)c1ccc(S(=O)(=O)N(C)C)cc1 (stereo not drawn) [Compound A-801, 4-((1-(2-(4-((4,4-difluoropiperidin-1-yl)methyl)piperidin-1-yl)-3-fluorophenyl)ethyl)sulfonyl)-N,N-dimethylbenzenesulfonamide] | ≤ 2000 | –
CC(c1cccc(F)c1N1CCC(CN2CCC(F)(F)C2)CC1)S(=O)(=O)c1ccc(S(=O)(=O)N(C)C)cc1 (stereo not drawn) [Compound A-802, 4-[1-(2-{4-[(3,3-difluoropyrrolidin-1-yl)methyl]piperidin-1-yl}-3-fluorophenyl)ethanesulfonyl]-N,N-dimethylbenzene-1-sulfonamide] | ≤ 2000 | –
CC(c1cccc(F)c1N1CCC(CN2CCC(F)(F)CC2)CC1)S(=O)(=O)c1ccc(S(=O)(=O)N(C)C)cc1 (stereo not drawn) [Compound A-803, 4-((1-(2-(4-((4,4-difluoropiperidin-1-yl)methyl)piperidin-1-yl)-3-fluorophenyl)ethyl)sulfonyl)-N,N-dimethylbenzenesulfonamide] | – | ≤ 2000
CC(c1cccc(F)c1N1CCC(CN2CCC(F)(F)CC2)CC1)S(=O)(=O)c1ccc(S(=O)(=O)N(C)C)cc1 (stereo not drawn) [Compound A-804, 4-((1-(2-(4-((4,4-difluoropiperidin-1-yl)methyl)piperidin-1-yl)-3-fluorophenyl)ethyl)sulfonyl)-N,N-dimethylbenzenesulfonamide] | – | ≤ 2000
CC(c1cccc(F)c1N1CCC(CN2CCC(F)(F)C2)CC1)S(=O)(=O)c1ccc(S(=O)(=O)N(C)C)cc1 (stereo not drawn) [Compound A-805, 4-((1-(2-(4-((3,3-difluoropyrrolidin-1-yl)methyl)piperidin-1-yl)-3-fluorophenyl)ethyl)sulfonyl)-N,N-dimethylbenzenesulfonamide] | – | ≤ 2000
CC(c1cccc(F)c1N1CCC(CN2CCC(F)(F)C2)CC1)S(=O)(=O)c1ccc(S(=O)(=O)N(C)C)cc1 (stereo not drawn) [Compound A-806, 4-((1-(2-(4-((3,3-difluoropyrrolidin-1-yl)methyl)piperidin-1-yl)-3-fluorophenyl)ethyl)sulfonyl)-N,N-dimethylbenzenesulfonamide] | – | ≤ 2000
CNC(=O)c1cccc(NS(=O)(=O)c2ccc(S(=O)(=O)N(C)C)cc2)c1N1CCCCC1 [Compound A-809, 3-[4-(dimethylsulfamoyl)benzenesulfonamido]-N-methyl-2-(piperidin-1-yl)benzamide] | ≥ 10000 | –
C#Cc1ccc(NS(=O)(=O)c2ccc(S(=O)(=O)N(C)C)cc2)c(N2CCCCC2)c1 [Compound A-812, N4-[4-ethynyl-2-(piperidin-1-yl)phenyl]-N1,N1-dimethylbenzene-1,4-disulfonamide] | ≤ 2000 | –
COCC1(C)CCN(c2c(NS(=O)(=O)c3ccc(S(=O)(=O)N(C)C)cc3)ccc3nccn23)CC1 [Compound A-813, N4-{5-[4-(methoxymethyl)-4-methylpiperidin-1-yl]imidazo[1,2-a]pyridin-6-yl}-N1,N1-dimethylbenzene-1,4-disulfonamide] | ≥ 10000 | –
C[C@@H]1CN(CC2CCN(c3c(F)cccc3NS(=O)(=O)c3ccc(C(F)(F)C4CC4)cc3)CC2)C[C@H](C)O1 [Compound A-814, 4-(cyclopropyldifluoromethyl)-N-[2-(4-{[(2R,6S)-2,6-dimethylmorpholin-4-yl]methyl}piperidin-1-yl)-3-fluorophenyl]benzene-1-sulfonamide] | ≤ 2000 | –
CN(C)S(=O)(=O)c1ccc(S(=O)(=O)Nc2cccc(F)c2N2CCC3(CCN3)CC2)cc1 [Compound A-816, N4-(2-{1,7-diazaspiro[3.5]nonan-7-yl}-3-fluorophenyl)-N1,N1-dimethylbenzene-1,4-disulfonamide] | ≥ 10000 | –
C[C@@H]1CC(OC2CCN(c3c(F)cccc3NS(=O)(=O)c3ccc(S(=O)(=O)N(C)C)cc3)CC2)C[C@H](C)O1 (stereo partly drawn) [Compound A-817, N4-[2-(4-{[(2R,6S)-2,6-dimethyloxan-4-yl]oxy}piperidin-1-yl)-3-fluorophenyl]-N1,N1-dimethylbenzene-1,4-disulfonamide] | ≤ 2000 | –
C[C@@H]1CN(CC2CCN(c3c(F)cccc3NS(=O)(=O)c3ccc(S(=O)(=O)N(C)C)cc3)CC2)C[C@@H](C)O1 [Compound A-818, N4-[2-(4-{[(2R,6R)-2,6-dimethylmorpholin-4-yl]methyl}piperidin-1-yl)-3-fluorophenyl]-N1,N1-dimethylbenzene-1,4-disulfonamide] | ≤ 2000 | –
O=S(=O)(c1ccc2c(c1)CCC2)N1Cc2cccc(N3CCOCC3)c2C1 [Compound A-819, 2-(2,3-dihydro-1H-indene-5-sulfonyl)-4-(morpholin-4-yl)-2,3-dihydro-1H-isoindole] | ≥ 10000 | –
